Columns and labels:
[1] = test system: blood-glucose concentration; test: Decrease in blood-glucose concentration in rats after oral dose (Table 1; ED30 rats Table 2); type: in vivo; settings: Rattus norvegicus, oral, read-out: Effective oral doses ED30
Description: (§1) The hypoglycemic activity of N-{4-[2-(pyrazole-1-carbonamide)-ethyl]-benzenesulphonyl}-ureas prepared according to the present invention can be noticed after their oral administration to mice, rats, rabbits and people and when determining the glucose concentration in blood with a known enzymatic method using glucose oxidase.
The exemplary comparison of effective doses (ED30) and the effect of oral dose size of the compounds prepared according to the present invention with Glibornuride, which is distinguished by its high effectiveness and good tolerance when administered to people, on the glucose concentration in the blood of rats, is given in Table 1.

[2] = test system: blood-glucose concentration; test: ED30 oral hypoglycemic dose in rabbits (Table 2); type: in vivo; settings: Oryctolagus cuniculus, read-out: Effective oral doses ED30
Method: as §1
(§2) (Table 2). […] It has been observed that even 9 hours after the administration of one dose of SPC-5002 to rats, the glucose level in blood was decreased, whereas in the case of Glibornuride the glucose level comes back to its normal value in 6 hours from the time of the administration.

[3] = test system: blood-glucose concentration; test: Blood-glucose time course up to 24 hours in rats (Table 3); type: in vivo; settings: for glucose concentration in blood, average: oral 4 mg/kg
Method: as §1, §2
(§3) The comparison of SPC-5002 and Glibornuride effect on changes in
concentration of rats in time up to 24 hours from the moment of the
in an oral dose containing 4 mg/kg body weight

[4] = test system: blood-glucose concentration; test: Blood-glucose time course up to 24 hours in rabbits (Table 4); type: in vivo; settings: for glucose concentration in blood, average: oral 5 mg/kg
Method: as §1, with “oxidase. […]” for “oxidase.”
as §3
concentration of rabbits in time up to 24 hours from the moment of the
in an oral dose containing 5 mg/kg body weight

[5] = Oral toxicity in rats (LD50); settings: rat, in vivo
[6] = Oral toxicity in mice (LD50); settings: mouse, in vivo
[7] = test system: oxidizing phosphorylation in mitochondria of a rat's liver; test: Oxidizing phosphorylation of rat liver mitochondria; type: biochemical
Method: 2-oxoglutaran 2 mM, ADP 1 mM, mitochondria | protein 4 mg/m. […] The | oxidizing phosphorylation speed was determined by means of the measuremen | of hydrogen ion consumption. The calcium transmission to mitochondria was […]

[8] = test system: glucose concentration; test: Blood glucose in normal men volunteers (Table 7); type: in vivo; settings: for decrease in blood-glucose vs starting value: 5 mg oral; for Glucose concentration: oral 5 mg SPC-5002 or 12.5 mg Glibornuride
Method: as §1
(§4) When administered to normal men volunteers it has been stated that 60 minutes after the administration of SPC-5002 a 5 mg oral dose causes the decrease in blood-glucose of 28% in comparision to the starting value and after 90 minutes it reaches 33% (Table 7). Whereas Glibornuride employed in a dose 2.5 times as big on peak of its activity decreases the glucose blood level only of 19%. It can clearly be noticed that there is a positive correlation between the glycemic and insulin level curves. Both examined preparations cause a significant decrease in free fatty acids in blood. […] 60 and 90 minutes after the SPC-5002 administration, the blood-glycose level is decreased to 33 and 52% while in the Placebo group it is maintained in the range of 13-14%.
(§5) The comparison of glucose, insulin and free fatty acids concentration in
(§6) normal men after the oral administration of 5 mg of SPC-5002 or 12.5 mg

[9] = test system: glucose concentration; test: Blood glucose in normal men after a meal (Table 8); type: in vivo; settings: for blood-glycose level decrease: normal men after meal; for Glucose concentration / % of changes in glucose concentration: meal, oral 10 mg
Method: as §1, §4
(§7) The comparison of glucose concentration changes in voluntary-normal men
(§8) eaten a meal and the oral administration of 10 mg of SPC-5002 or Placebo

[10] = test system: blood-glucose concentration; test: Hypoglycemic activity in three animal species versus Glibornuride; type: in vivo, mice, rats, rabbits; settings: parenteral and oral
Method: as §1, §2

[11] = test system: insulin concentration; test: Insulin in normal men volunteers (Table 7); type: in vivo; settings: oral 5 mg SPC-5002 or 12.5 mg Glibornuride
Method: as §4, §5, §6

[12] = test system: free fatty acids concentration; test: Free fatty acids in normal men volunteers (Table 7); type: in vivo; settings: oral 5 mg SPC-5002 or 12.5 mg Glibornuride
Method: as §4, §5, §6

[13] = test system: insulin concentration; test: Insulin in normal men after a meal (Table 8); type: in vivo; settings: for Insulin concentration: normal men, meal, oral 10 mg
Method: as §4, §7, §8

In the case of `Cc1ccn(C(=O)NCCc2ccc(S(=O)(=O)NC(=O)NC3CCCCC3)cc2)n1` [SPC-5002, N-{4-[2-(3-methylpyrazole-1-carbonamide)-ethyl]-benzenesulphonyl}-N'-cyclohexylourea], the ED30 [1] is reported as 2.2 mg/kg, the ED30 [2] is reported as 5.5 mg/kg and the “duration of decreased blood glucose after one dose” value ([3]; one dose) is reported as no less than 9 h. The “duration of hypoglycemic activity relative to Glibornuride” value ([3]; one dose) was “longer hypoglycemic activity than the administration of Glibornuride”, the “glucose concentration in blood, average” value ([3]; 0 h) was 82 mg/100 cc and the “glucose concentration in blood, average” value ([3]; 1 h) was 58 mg/100 cc. For the same compound, the “glucose concentration in blood, average” value ([3]; 3 h) was 45 mg/100 cc, the “glucose concentration in blood, average” value ([3]; 6 h) was 65 mg/100 cc and the “glucose concentration in blood, average” value ([3]; 9 h) was 70 mg/100 cc. The “glucose concentration in blood, average” value ([3]; 24 h) was 85 mg/100 cc, the “effectiveness and duration relative to Glibornuride” value [4] was “more effective and longer activity in comparison to Glibornuride” and the “glucose concentration in blood, average” value ([4]; 0 h) was 71 mg/100 cc. The “glucose concentration in blood, average” value ([4]; 0.5 h) was 57 mg/100 cc, the “glucose concentration in blood, average” value ([4]; 1 h) was 59 mg/100 cc and the “glucose concentration in blood, average” value ([4]; 3 h) was 63 mg/100 cc. For the same compound, the “glucose concentration in blood, average” value ([4]; 6 h) was 62 mg/100 cc, the “glucose concentration in blood, average” value ([4]; 9 h) was 62 mg/100 cc and the “glucose concentration in blood, average” value ([4]; 24 h) was 70 mg/100 cc. The LD50 [5] was greater than 15000 mg/kg, the LD50 [6] was greater than 20000 mg/kg and the “effect on oxidizing phosphorylation” value ([7]; 0.05 nM) was “no effect”. The “% of inhibition, oxidizing phosphorylation” value (“% of inhibition” for short) ([7]; concentration 0.05 n M) was 0%, the “% of inhibition” value ([7]; concentration 0.1 n M) was 15% and the “% of inhibition” value ([7]; concentration 0.3 n M) was 21%. The “% of inhibition” value ([7]; concentration 0.5 n M) was 38%, the “% of inhibition” value ([7]; concentration 0.7 n M) was 63% and the “% of inhibition” value ([7]; concentration 1.0 n M) was 74%. The Ki ([7]; rat liver mitochondria) was 600 µM, the “decrease in blood-glucose vs starting value” ([8]; 60 minutes) was 28% and the “decrease in blood-glucose vs starting value” ([8]; 90 minutes) was 33%. It also gave a Glucose concentration ([8]; 0 mins (empty stomach)) of 96.8 mg/100 cc, a Glucose concentration ([8]; 30 mins) of 88.5 mg/100 cc and a Glucose concentration ([8]; 60 mins) of 69.0 mg/100 cc. The Glucose concentration ([8]; 90 mins) was 65.5 mg/100 cc, the Glucose concentration ([8]; 120 mins) was 76.5 mg/100 cc and the Glucose concentration ([8]; 180 mins) was 79.7 mg/100 cc. For the same compound, the blood-glycose level decrease ([9]; 60 minutes) was 33%, the blood-glycose level decrease ([9]; 90 minutes) was 52% and the “glucose increase vs starting value” ([9]; normal men, 30 minutes after the meal) was 34%. The Glucose concentration ([9]; normal men, 0 mins (empty stomach)) was 89 mg/100 cc, the “% of changes in glucose concentration” value ([9]; normal men, 30 mins) was “+34%” and the Glucose concentration ([9]; normal men, 30 mins) was 119 mg/100 cc. For the same compound, the “% of changes in glucose concentration” value ([9]; normal men, 60 mins) was -33%, the Glucose concentration ([9]; normal men, 60 mins) was 60 mg/100 cc and the “% of changes in glucose concentration” value ([9]; normal men, 90 mins) was -52%. The Glucose concentration ([9]; normal men, 90 mins) was 43 mg/100 cc, the “% of changes in glucose concentration” value ([9]; normal men, 120 mins) was -21% and the Glucose concentration ([9]; normal men, 120 mins) was 70 mg/100 cc. For the same compound, the “% of changes in glucose concentration” value ([9]; normal men, 180 mins) was 0%, the Glucose concentration ([9]; normal men, 180 mins) was 89 mg/100 cc and the “hypoglycemic activity relative to Glibornuride” value [10] was “about twice as active as Glibornuride”. It also gave an Insulin concentration ([11]; 0 mins (empty stomach)) of 4.0 μU/cc, an Insulin concentration ([11]; 30 mins) of 9.2 μU/cc and an Insulin concentration ([11]; 60 mins) of 13.5 μU/cc. For the same compound, the Insulin concentration ([11]; 90 mins) was 7.3 μU/cc, the Insulin concentration ([11]; 120 mins) was 5.0 μU/cc and the Insulin concentration ([11]; 180 mins) was 3.2 μU/cc. The “Free fatty acids concentration” value ([12]; 0 mins (empty stomach)) was 0.63 mEq/1000 cc, the “Free fatty acids concentration” value ([12]; 30 mins) was 0.48 mEq/1000 cc and the “Free fatty acids concentration” value ([12]; 60 mins) was 0.46 mEq/1000 cc. The “Free fatty acids concentration” value ([12]; 90 mins) was 0.48 mEq/1000 cc, the “Free fatty acids concentration” value ([12]; 120 mins) was 0.51 mEq/1000 cc and the “Free fatty acids concentration” value ([12]; 180 mins) was 0.52 mEq/1000 cc. For the same compound, the “insulin concentration relative to placebo group” value ([13]; normal men after meal, 60 minutes) was “twice as high as that in the placebo group”, the Insulin concentration ([13]; 0 mins (empty stomach)) was 7 μU/cc and the Insulin concentration ([13]; 30 mins) was 50 μU/cc. The Insulin concentration ([13]; 60 mins) was 55 μU/cc, the Insulin concentration ([13]; 90 mins) was 17 μU/cc and the Insulin concentration ([13]; 120 mins) was 8 μU/cc. For the same compound, the Insulin concentration ([13]; 180 mins) was 8 μU/cc.

Source: patent US4153710A, “N-(4-[2-(pyrazole-1-carbonamide)-ethyl]-benzenesulphonyl)-urea” (Starogardzkie Zaklady Farmaceutyczne POLFA, priority 1976, dated 1979)
